Test results published in patent US20150126467A1, “USE OF ALGINATE OLIGOMERS TO ENHANCE THE EFFECTS OF ANTIFUNGAL AGENTS” (AlgiIPharma AS, priority 2011, published 2015).
≈ marks a conversion by molar mass, not a printed value.

Assays:
Type in all cases: cell-based
[1] = system: Candida albicans, CCUG 39343; assay: Robotic MIC assay (Example 1); details: for Minimum Inhibitory Concentration (MIC): 24 hours; for reduction in MIC values: comparing 0 and 10% G-block
Description: (§1) A robotic MIC Assay was performed as follows. OligoG CF-5/20 were dissolved in medium (Mueller-Hinton broth or M19 broth depending on experiment) to 1.25 times of the desired assay concentrations (2, 6 and 10%). The antifungal agents under test were dissolved in medium without OligoG CF-5/20 and in medium with OligoG CF-5/20 at a concentration of 1.25 times the highest desired assay concentrations. For experiments where the effect of adding different concentrations of Na^+ was investigated, NaCl was dissolved in medium to the desired concentrations (10, 30 and 50 mM).
(§2) Two-fold serial dilutions of antifungal agents were made in medium with different concentrations of OligoG CF-5/20, and the solutions were placed in four parallel wells in Nunc 384-well micro plates (30 μl per well in Nunc 242757 microplates). A group of 8 wells with no addition of antifungal agents for each OligoG CF-5/20 concentration was included on each microplate as growth reference. To each well in the 384-well assay plates was added 7.5 μl of medium inoculated with a frozen stock culture of Candida albicans (strain CCUG 39343).
The frozen stock culture was prepared by growing the Candida strain at 34° C. for 48 h on YM-agar. 1-3 colonies from the plates were grown in 6 ml YM-broth at 34° C. for 14 h before freezing in 6% glycerol at −80° C. Each batch of frozen stock culture was then characterized in separate growth experiments using Mueller-Hinton or M19 broth to determine the minimum amount of inoculum giving satisfactory growth after 48 h under the conditions relevant for the MIC assay. This inoculation procedure is used in order to reduce day to day variation in bioassays.
(§3) The micro plates were placed in plastic bags and incubated without shaking at 34° C. The optical density at 600 nm in the microwells was measured after approximately 13, 18, 24 and 34 hours of incubation, and the relative growth yield in each well was calculated based on the growth in the reference groups.

[2] = system: C. krusei 141/03 (candidosis); assay: Robotic MIC assay, Candida strains (Example 2); details: 48 h, Mueller-Hinton broth
Method in brief: (§4)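 MIC in Mueller-Hinton broth, 34° C, no shaking, 48 h; OligoG CF-5/20 at 0/2/6/10%; antifungals two-fold serially diluted, quadruplicate wells; OD600 vs no-antifungal growth reference.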

[3] = system: C. tropicalis T2.2 (oral); assay: Robotic MIC assay, Candida strains (Example 2); details: 48 h, Mueller-Hinton broth
Method in brief: as §4

[4] = system: Candida albicans; assay: Robotic MIC assay with asthma/COPD medicaments (Example 5); details: Mueller-Hinton broth; for MIC values: 24 hours
Description: as §1, §2, §3
The robotic assay described in Example 1 was employed in this Example. […] The concentration utilized for the different components were based on information from Manocha et al. (2006).
In this assay only Mueller-Hinton broth was used since this is the medium specified for standardized MIC assays (Jorgensen et al., 1999).

[5] = system: various Candida species and strains; assay: Robotic MIC assay, summary over all strains (Example 2); details: all species and strains tested
Description: The robotic assay described in Example 1 was employed in this Example. Strains were grown in Mueller-Hinton broth (LAB114 from Lab M Limited) and MIC values (μg ml-1) were determined for each antifungal after incubation for 48 h in the presence of 0, 2, 6 and 10% OligoG CF-5/20 G-fragments. […] OligoG CF-5/20 G-fragments were provided by AlgiPharma AS, Norway.
Candida strains used were as follows: • C. albicans CCUG 39343 (strain from culture collection) • C. parapsillosis ATCC 22019T (strain from culture collection) • C. krusei 141/03 (candidosis) • C. krusei 249/03(2) (ulceration) • C. lusitaniae 994/01(2) (candidosis) • C. tropicalis 12 (vaginal) • C. tropicalis 75 (vaginal) • C. tropicalis 519468 (urinary) • C. tropicalis 544123 (urinary) • C. tropicalis 250/03 (candidosis) • C. tropicalis AG1 (oral) • C. tropicalis T2.2 (oral)

**Q.** `C[C@@H]1[C@H](O)[C@@H](C)/C=C/C=C/CC/C=C/C=C/C=C/C=C/C(O[C@H]2O[C@H](C)[C@@H](O)[C@H](N)[C@@H]2O)CC2O[C@](O)(CC(O)C(O)CCC(O)CC(O)CC(O)CC(=O)O[C@H]1C)CC(O)C2C(=O)O` (some centres unmarked) [Nystatin, nystatin] was tested. Which “Minimum Inhibitory Concentration (MIC)” value ([1]; M19, NaCl 0 mM) did it give?
**A.** 6.4 µg/mL

**Q.** What about the “Minimum Inhibitory Concentration (MIC)” value ([1]; M19, NaCl 30 mM) of the same compound?
**A.** 3.2 µg/mL

**Q.** What about the “Minimum Inhibitory Concentration (MIC)” value ([1]; M19, NaCl 50 mM) of the same compound?
**A.** 1.6 µg/mL

**Q.** What about the “Minimum Inhibitory Concentration (MIC)” value ([1]; M19, OligoG CF 5/20 0%) of the same compound?
**A.** 6.4 µg/mL

**Q.** What about the “Minimum Inhibitory Concentration (MIC)” value ([1]; M19, OligoG CF 5/20 2%) of the same compound?
**A.** 1.6 µg/mL

**Q.** What about the “Minimum Inhibitory Concentration (MIC)” value ([1]; M19, OligoG CF 5/20 6%) of the same compound?
**A.** 0.8 µg/mL

**Q.** What about the “Minimum Inhibitory Concentration (MIC)” value ([1]; M19, OligoG CF 5/20 10%) of the same compound?
**A.** 0.4 µg/mL

**Q.** What about the “reduction in MIC values” ([1]; M19) of the same compound?
**A.** 16 ×

**Q.** What about the “Minimum Inhibitory Concentration (MIC)” value ([1]; Mueller-Hinton, NaCl 0 mM) of the same compound?
**A.** 6.4 µg/mL

**Q.** And the “Minimum Inhibitory Concentration (MIC)” value ([1]; Mueller-Hinton, NaCl 10 mM)?
**A.** 6.4 µg/mL

**Q.** What about the “Minimum Inhibitory Concentration (MIC)” value ([1]; Mueller-Hinton, NaCl 30 mM) of the same compound?
**A.** 6.4 µg/mL

**Q.** And the “Minimum Inhibitory Concentration (MIC)” value ([1]; Mueller-Hinton, NaCl 50 mM)?
**A.** 6.4 µg/mL

**Q.** And the “Minimum Inhibitory Concentration (MIC)” value ([1]; Mueller-Hinton, OligoG CF 5/20 0%)?
**A.** 3.2 µg/mL

**Q.** And the “Minimum Inhibitory Concentration (MIC)” value ([1]; Mueller-Hinton, OligoG CF 5/20 2%)?
**A.** 3.2 µg/mL

**Q.** And the “Minimum Inhibitory Concentration (MIC)” value ([1]; Mueller-Hinton, OligoG CF 5/20 6%)?
**A.** 0.8 µg/mL

**Q.** And the “Minimum Inhibitory Concentration (MIC)” value ([1]; Mueller-Hinton, OligoG CF 5/20 10%)?
**A.** 0.4 µg/mL

**Q.** And the “reduction in MIC values” ([1]; Mueller-Hinton)?
**A.** 8 ×

**Q.** And the “effect of addition of OligoG CF-5/20 on MIC values” ([1]; both media tested (M19, Mueller-Hinton))?
**A.** reduction in MIC values

**Q.** And the “Minimum Inhibitory Concentration (MIC)” value ([2]; 0% OligoG)?
**A.** 8 µg/mL

**Q.** What about the “Minimum Inhibitory Concentration (MIC)” value ([2]; 2% OligoG) of the same compound?
**A.** 4 µg/mL

**Q.** And the “Minimum Inhibitory Concentration (MIC)” value ([2]; 6% OligoG)?
**A.** 2 µg/mL

**Q.** And the “Minimum Inhibitory Concentration (MIC)” value ([2]; 10% OligoG)?
**A.** 2 µg/mL

**Q.** What about the “Minimum Inhibitory Concentration (MIC)” value ([3]; 0% OligoG) of the same compound?
**A.** 8 µg/mL

**Q.** And the “Minimum Inhibitory Concentration (MIC)” value ([3]; 2% OligoG)?
**A.** 8 µg/mL

**Q.** What about the “Minimum Inhibitory Concentration (MIC)” value ([3]; 6% OligoG) of the same compound?
**A.** 4 µg/mL

**Q.** What about the “Minimum Inhibitory Concentration (MIC)” value ([3]; 10% OligoG) of the same compound?
**A.** 2 µg/mL

**Q.** And the “reduction in MIC values” ([4]; addition of 10% OligoG CF-5/20 compared to without OligoG CF-5/20)?
**A.** 4 ×

**Q.** And the MIC values ([4]; no medicament added, G-block 0%)?
**A.** 2 µg/mL (≈ 2.16 µM)

**Q.** And the MIC values ([4]; no medicament added, G-block 2%)?
**A.** 2 µg/mL (≈ 2.16 µM)

**Q.** What about the MIC values ([4]; no medicament added, G-block 6%) of the same compound?
**A.** 1 µg/mL (≈ 1.08 µM)

**Q.** What about the MIC values ([4]; no medicament added, G-block 10%) of the same compound?
**A.** 0.5 µg/mL (≈ 0.54 µM)

**Q.** What about the MIC values ([4]; with Budesonide 0.01 mM, G-block 0%) of the same compound?
**A.** 4 µg/mL (≈ 4.32 µM)

**Q.** And the MIC values ([4]; with Budesonide 0.01 mM, G-block 2%)?
**A.** 4 µg/mL (≈ 4.32 µM)

**Q.** And the MIC values ([4]; with Budesonide 0.01 mM, G-block 6%)?
**A.** 2 µg/mL (≈ 2.16 µM)

**Q.** And the MIC values ([4]; with Budesonide 0.01 mM, G-block 10%)?
**A.** 1 µg/mL (≈ 1.08 µM)

**Q.** What about the MIC values ([4]; with Formoterol 0.5 mM (2% DMSO), G-block 0%) of the same compound?
**A.** 2 µg/mL (≈ 2.16 µM)

**Q.** What about the MIC values ([4]; with Formoterol 0.5 mM (2% DMSO), G-block 2%) of the same compound?
**A.** 2 µg/mL (≈ 2.16 µM)

**Q.** And the MIC values ([4]; with Formoterol 0.5 mM (2% DMSO), G-block 6%)?
**A.** 1 µg/mL (≈ 1.08 µM)

**Q.** And the MIC values ([4]; with Formoterol 0.5 mM (2% DMSO), G-block 10%)?
**A.** 0.5 µg/mL (≈ 0.54 µM)

**Q.** And the MIC values ([4]; with Ipratropium bromide 0.01 mM, G-block 0%)?
**A.** 4 µg/mL (≈ 4.32 µM)

**Q.** And the MIC values ([4]; with Ipratropium bromide 0.01 mM, G-block 2%)?
**A.** 2 µg/mL (≈ 2.16 µM)

**Q.** What about the MIC values ([4]; with Ipratropium bromide 0.01 mM, G-block 6%) of the same compound?
**A.** 1 µg/mL (≈ 1.08 µM)

**Q.** And the MIC values ([4]; with Ipratropium bromide 0.01 mM, G-block 10%)?
**A.** 0.25 µg/mL (≈ 0.27 µM)

**Q.** What about the MIC values ([4]; with Ipratropium bromide 1 mM, G-block 0%) of the same compound?
**A.** 4 µg/mL (≈ 4.32 µM)

**Q.** What about the MIC values ([4]; with Ipratropium bromide 1 mM, G-block 2%) of the same compound?
**A.** 2 µg/mL (≈ 2.16 µM)

**Q.** And the MIC values ([4]; with Ipratropium bromide 1 mM, G-block 6%)?
**A.** 0.5 µg/mL (≈ 0.54 µM)

**Q.** And the MIC values ([4]; with Ipratropium bromide 1 mM, G-block 10%)?
**A.** 0.25 µg/mL (≈ 0.27 µM)

**Q.** What about the MIC values ([4]; with Salbutamol 0.01 mM, G-block 0%) of the same compound?
**A.** 4 µg/mL (≈ 4.32 µM)

**Q.** And the MIC values ([4]; with Salbutamol 0.01 mM, G-block 2%)?
**A.** 2 µg/mL (≈ 2.16 µM)

**Q.** What about the MIC values ([4]; with Salbutamol 0.01 mM, G-block 6%) of the same compound?
**A.** 1 µg/mL (≈ 1.08 µM)

**Q.** What about the MIC values ([4]; with Salbutamol 0.01 mM, G-block 10%) of the same compound?
**A.** 0.25 µg/mL (≈ 0.27 µM)

**Q.** What about the MIC values ([4]; with Salbutamol 1 mM, G-block 0%) of the same compound?
**A.** 2 µg/mL (≈ 2.16 µM)

**Q.** What about the MIC values ([4]; with Salbutamol 1 mM, G-block 2%) of the same compound?
**A.** 2 µg/mL (≈ 2.16 µM)

**Q.** And the MIC values ([4]; with Salbutamol 1 mM, G-block 6%)?
**A.** 1 µg/mL (≈ 1.08 µM)

**Q.** And the MIC values ([4]; with Salbutamol 1 mM, G-block 10%)?
**A.** 0.25 µg/mL (≈ 0.27 µM)

**Q.** And the “effect of addition of OligoG CF-5/20 on MIC values” [5]?
**A.** reduced
